Results from ChEMBL document CHEMBL1201862, “PubChem BioAssay data set” (2004).
Activity calls are given as the source filed them.

Tests used:
[1] = target: DNA dC->dU-editing enzyme APOBEC-3A (Homo sapiens, UniProt P31941); assay: SAR analysis of small molecule inhibitors of APOBEC3A DNA Deaminase via a fluorescence-based single-stranded DNA deaminase assay.; assay type: functional; conditions: read-out: IC50_Mean
[2] = target: DNA dC->dU-editing enzyme APOBEC-3G (Homo sapiens, UniProt Q9HC16); assay: APOBEC3G deaminase inhibitors, SAR follow-up, biochemical, fluorescence, single-stranded DNA substrate (AID 602136); assay type: functional; conditions: read-out: IC50_Mean
Chain of DNA dC->dU-editing enzyme APOBEC-3G (Q9HC16 whole entry): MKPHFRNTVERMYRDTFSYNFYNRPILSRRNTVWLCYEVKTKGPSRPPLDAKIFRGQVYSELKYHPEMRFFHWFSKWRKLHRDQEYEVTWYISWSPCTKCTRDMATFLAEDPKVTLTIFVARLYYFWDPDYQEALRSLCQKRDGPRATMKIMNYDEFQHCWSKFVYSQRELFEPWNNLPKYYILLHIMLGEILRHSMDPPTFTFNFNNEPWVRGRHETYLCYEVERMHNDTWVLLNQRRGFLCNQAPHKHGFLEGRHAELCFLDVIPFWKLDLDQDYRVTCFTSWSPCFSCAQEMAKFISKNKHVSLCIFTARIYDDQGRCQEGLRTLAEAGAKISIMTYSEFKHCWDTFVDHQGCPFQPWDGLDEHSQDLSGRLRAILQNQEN

[3] = target: Mitochondrial peptide methionine sulfoxide reductase (Bos taurus, UniProt P54149); assay: Absorbance-based biochemical high throughput dose response assay for activators of Methionine sulfoxide reductase A (MsrA).; assay type: functional
Chain of Mitochondrial peptide methionine sulfoxide reductase (P54149 whole entry): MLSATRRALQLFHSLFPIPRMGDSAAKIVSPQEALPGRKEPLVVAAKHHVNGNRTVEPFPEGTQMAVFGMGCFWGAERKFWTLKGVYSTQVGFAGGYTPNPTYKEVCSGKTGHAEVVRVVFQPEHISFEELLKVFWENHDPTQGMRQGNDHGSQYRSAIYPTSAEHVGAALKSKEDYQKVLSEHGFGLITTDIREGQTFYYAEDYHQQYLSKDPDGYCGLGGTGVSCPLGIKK

[4] = THP-1 cell cytotoxicity, dose response, cytotoxicity control for Vif-APOBEC3G degradation inhibitor project, THP-1 cells (AID 1117359); assay type: functional; conditions: Human immunodeficiency virus 1, THP-1
[5] = target: T1, Low molecular weight phosphotyrosine protein phosphatase (Homo sapiens, UniProt P24666); assay type: functional; conditions: read-out: IC50_Mean
T1 sequence (P24666 whole entry): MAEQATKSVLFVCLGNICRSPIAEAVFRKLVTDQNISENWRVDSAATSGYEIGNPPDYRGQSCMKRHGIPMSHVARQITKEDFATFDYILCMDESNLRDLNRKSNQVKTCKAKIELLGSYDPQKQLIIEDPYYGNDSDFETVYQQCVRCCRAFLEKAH

[6] = target: T1, Low molecular weight phosphotyrosine protein phosphatase; assay type: functional; conditions: read-out: IC50_Mean; remark: listed apart in the source
[7] = target: T2, Heat shock factor protein 1 (Mus musculus, UniProt P38532); assay: inhibition of MG132-induced HSE-luciferase signal, confirmation, cell-based, NIH3T3, luminescence, dose retest (AID 2382); assay type: functional;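 also: NIH3T3 fibroblasts with HSF1-driven luciferase reporter stressed by proteasome inhibitor MG132; luminescence from HSF1-driven luciferase expression after 8 hours of MG132 stress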
T2 sequence (P38532 whole entry): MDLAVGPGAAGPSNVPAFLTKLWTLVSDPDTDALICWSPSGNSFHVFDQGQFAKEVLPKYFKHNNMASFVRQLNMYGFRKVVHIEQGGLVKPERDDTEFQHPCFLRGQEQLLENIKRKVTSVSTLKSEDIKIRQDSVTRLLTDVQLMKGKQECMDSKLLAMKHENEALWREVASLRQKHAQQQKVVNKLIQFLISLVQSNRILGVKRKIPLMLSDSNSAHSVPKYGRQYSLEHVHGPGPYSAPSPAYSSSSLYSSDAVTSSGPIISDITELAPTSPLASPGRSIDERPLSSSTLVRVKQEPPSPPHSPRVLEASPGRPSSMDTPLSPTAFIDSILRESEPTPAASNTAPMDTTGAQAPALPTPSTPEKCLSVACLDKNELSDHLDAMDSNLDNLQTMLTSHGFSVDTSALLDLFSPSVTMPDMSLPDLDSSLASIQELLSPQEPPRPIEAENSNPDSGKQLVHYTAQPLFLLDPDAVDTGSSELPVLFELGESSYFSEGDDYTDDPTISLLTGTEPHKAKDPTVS

[8] = AlphaScreen signal interference compounds, dose response, artefact control for ARNT-TACC3 interaction inhibitor project, biochemical, luminescence, cherry-pick (AID 651705); assay type: functional;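 also: AlphaScreen bead proximity signal that flags compounds interfering with the detection technology; potency reflects signal decrease which marks the compound as an assay artifact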
[9] = ARNT/TACC3 interaction disruptors, potency, confirmation, biochemical, AlphaScreen, cherry-picked samples (AID 651703); assay type: functional, Homo sapiens;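 also: His-tagged ARNT PAS-B domain paired with GST-TACC3 E629A dimer coactivator fragment; potency of inhibitors that break up the complex and lower AlphaScreen signal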
[10] = target: Ras and Rab interactor 1/Tyrosine-protein kinase ABL1 (Homo sapiens, UniProt P00519+Q13671); assay type: functional;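 also: biochemical TR-FRET dose-response test measuring inhibition of binding between Rin1 and Abl proteins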
Chain of Ras and Rab interactor 1/Tyrosine-protein kinase ABL1 (P00519 whole entry): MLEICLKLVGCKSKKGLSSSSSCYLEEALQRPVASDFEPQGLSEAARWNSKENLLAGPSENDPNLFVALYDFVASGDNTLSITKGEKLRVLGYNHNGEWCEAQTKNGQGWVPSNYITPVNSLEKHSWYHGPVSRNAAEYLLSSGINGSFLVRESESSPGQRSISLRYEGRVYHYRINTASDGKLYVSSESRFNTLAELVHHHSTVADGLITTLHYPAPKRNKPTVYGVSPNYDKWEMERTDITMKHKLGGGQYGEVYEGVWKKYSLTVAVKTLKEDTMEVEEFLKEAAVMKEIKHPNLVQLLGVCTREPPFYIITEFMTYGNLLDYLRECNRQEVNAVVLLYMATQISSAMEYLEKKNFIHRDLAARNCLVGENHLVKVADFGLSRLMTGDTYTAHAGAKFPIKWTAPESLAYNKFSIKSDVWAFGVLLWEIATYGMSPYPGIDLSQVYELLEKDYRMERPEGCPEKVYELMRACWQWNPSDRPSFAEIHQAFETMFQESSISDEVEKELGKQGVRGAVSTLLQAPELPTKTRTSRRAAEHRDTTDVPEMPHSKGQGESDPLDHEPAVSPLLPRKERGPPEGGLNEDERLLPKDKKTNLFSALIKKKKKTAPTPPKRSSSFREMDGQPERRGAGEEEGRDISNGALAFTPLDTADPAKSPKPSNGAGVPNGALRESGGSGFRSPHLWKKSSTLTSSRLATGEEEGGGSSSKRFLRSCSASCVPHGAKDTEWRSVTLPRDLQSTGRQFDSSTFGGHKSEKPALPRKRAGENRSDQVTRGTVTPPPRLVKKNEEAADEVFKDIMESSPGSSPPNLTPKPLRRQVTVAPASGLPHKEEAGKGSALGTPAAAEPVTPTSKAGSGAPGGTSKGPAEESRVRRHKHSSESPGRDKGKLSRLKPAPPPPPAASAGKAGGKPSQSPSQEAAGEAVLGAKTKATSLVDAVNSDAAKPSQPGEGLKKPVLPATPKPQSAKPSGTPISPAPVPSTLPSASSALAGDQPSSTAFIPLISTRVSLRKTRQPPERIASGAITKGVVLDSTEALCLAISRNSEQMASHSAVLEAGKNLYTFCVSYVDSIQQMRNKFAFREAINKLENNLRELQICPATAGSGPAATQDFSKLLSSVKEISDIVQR
Chain of Ras and Rab interactor 1/Tyrosine-protein kinase ABL1 (Q13671 whole entry): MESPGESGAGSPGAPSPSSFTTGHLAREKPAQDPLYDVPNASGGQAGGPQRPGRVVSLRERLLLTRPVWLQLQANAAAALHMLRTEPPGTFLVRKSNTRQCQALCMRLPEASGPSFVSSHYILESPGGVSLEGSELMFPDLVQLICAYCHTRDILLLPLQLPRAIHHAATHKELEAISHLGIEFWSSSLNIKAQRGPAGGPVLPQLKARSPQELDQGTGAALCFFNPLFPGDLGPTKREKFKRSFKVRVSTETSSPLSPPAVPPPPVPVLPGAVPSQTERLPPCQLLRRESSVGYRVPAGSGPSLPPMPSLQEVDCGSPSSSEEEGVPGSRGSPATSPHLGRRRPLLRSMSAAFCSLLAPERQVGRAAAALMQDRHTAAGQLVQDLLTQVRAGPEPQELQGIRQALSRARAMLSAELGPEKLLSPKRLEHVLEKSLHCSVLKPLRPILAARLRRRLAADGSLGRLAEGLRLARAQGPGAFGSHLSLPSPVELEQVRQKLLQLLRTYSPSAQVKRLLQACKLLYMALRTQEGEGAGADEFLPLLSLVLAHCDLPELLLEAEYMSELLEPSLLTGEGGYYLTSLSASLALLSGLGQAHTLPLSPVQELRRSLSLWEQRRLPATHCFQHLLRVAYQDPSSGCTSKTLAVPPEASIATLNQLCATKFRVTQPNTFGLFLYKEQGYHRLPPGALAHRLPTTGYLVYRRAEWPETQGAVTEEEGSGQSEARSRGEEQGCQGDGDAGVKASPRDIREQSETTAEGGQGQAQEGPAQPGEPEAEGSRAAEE

[11] = target: T3, Small ubiquitin-related modifier 1 (Homo sapiens, UniProt P63165); assay: inhibitors of SUMO1 partner interactions, dose response, biochemical, FRET (AID 624383); assay type: functional; conditions: read-out: IC50_Mean
T3 sequence (P63165 whole entry): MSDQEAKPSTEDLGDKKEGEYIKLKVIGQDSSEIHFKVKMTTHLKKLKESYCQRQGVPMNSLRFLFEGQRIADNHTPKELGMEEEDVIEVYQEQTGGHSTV

[12] = target: T4, Zinc finger protein mex-5 (Caenorhabditis elegans, UniProt Q9XUB2); assay: MEX-5/TCR-2 RNA interaction inhibitors, dose response, biochemical, C. elegans, fluorescence polarization (AID 1960)
T4 sequence (Q9XUB2 whole entry): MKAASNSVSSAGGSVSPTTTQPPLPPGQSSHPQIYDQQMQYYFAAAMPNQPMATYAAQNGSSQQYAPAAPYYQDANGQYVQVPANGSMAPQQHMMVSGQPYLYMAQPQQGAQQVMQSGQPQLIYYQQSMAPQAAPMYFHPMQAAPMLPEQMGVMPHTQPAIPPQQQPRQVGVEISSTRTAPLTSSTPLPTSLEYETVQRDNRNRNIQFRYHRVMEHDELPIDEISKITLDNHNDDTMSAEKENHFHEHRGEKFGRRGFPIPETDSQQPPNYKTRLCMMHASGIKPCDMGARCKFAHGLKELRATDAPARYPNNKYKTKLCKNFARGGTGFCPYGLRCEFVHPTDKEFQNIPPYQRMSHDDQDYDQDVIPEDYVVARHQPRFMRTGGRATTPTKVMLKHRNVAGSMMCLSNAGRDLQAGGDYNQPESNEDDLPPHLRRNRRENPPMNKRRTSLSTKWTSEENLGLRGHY

[13] = target: T3, Small ubiquitin-related modifier 1; assay: inhibitors of SUMO1 peptide binding, dose response, biochemical, fluorescence polarization, uHTS hits (AID 624382); assay type: functional; conditions: read-out: IC50_Mean
[14] = target: T5, RNA-binding protein pos-1 (Caenorhabditis elegans, UniProt G5EF15); assay: inhibitors of POS-1/mex-3 RNA binding, dose response, biochemical, fluorescence polarization (AID 1964);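 also: purified POS-1 fused to maltose binding protein made in E. coli; potency of compounds blocking POS-1 binding to fluorescent RNA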
T5 sequence (G5EF15 whole entry): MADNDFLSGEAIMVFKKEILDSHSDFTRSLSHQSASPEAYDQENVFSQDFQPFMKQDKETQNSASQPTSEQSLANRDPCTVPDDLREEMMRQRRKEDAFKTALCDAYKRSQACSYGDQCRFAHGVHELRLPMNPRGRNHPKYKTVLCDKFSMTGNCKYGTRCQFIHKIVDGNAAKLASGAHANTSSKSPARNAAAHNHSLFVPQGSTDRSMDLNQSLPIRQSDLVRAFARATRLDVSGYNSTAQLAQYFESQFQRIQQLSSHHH

[15] = target: T6, Carboxy-terminal domain RNA polymerase II polypeptide A small phosphatase 1 (Homo sapiens, UniProt Q9GZU7); assay: inhibitors of CTDSP1, concentration-response testing, biochemical assay, absorbance-based, actives from ultra-high-throughput screening (AID 540297); assay type: functional
T6 sequence (Q9GZU7 whole entry): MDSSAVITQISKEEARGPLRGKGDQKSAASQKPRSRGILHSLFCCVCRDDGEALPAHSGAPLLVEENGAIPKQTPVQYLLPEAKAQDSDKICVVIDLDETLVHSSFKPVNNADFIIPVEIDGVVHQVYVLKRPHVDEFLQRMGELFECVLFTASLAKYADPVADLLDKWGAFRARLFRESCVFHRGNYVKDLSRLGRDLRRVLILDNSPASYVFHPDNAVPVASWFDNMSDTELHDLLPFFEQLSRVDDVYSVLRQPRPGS

Chain of DNA dC->dU-editing enzyme APOBEC-3A (P31941 whole entry): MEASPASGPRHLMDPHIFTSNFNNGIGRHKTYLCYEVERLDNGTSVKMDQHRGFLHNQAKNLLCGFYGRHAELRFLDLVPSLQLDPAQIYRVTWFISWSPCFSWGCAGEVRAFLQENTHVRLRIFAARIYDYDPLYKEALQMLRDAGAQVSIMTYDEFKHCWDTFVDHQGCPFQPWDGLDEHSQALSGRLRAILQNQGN

Which IC50 [1] does the source give for O=C(CSc1nnc2scc(-c3ccccc3)n12)Nc1ccccc1F here?
The IC50 was > 99 µM (inactive).

And the IC50 [2]?
Its IC50 is > 99 µM (inactive).

What does the source list for CCCn1c(=O)c2ccccc2n2c(SCC(=O)NCc3ccccc3)nnc12?
IC50 [1]: > 99 µM (inactive); IC50 [2]: > 99 µM (inactive)

Which EC50 [3] does the source give for O=[N+]([O-])c1cc(Br)c(O)c(/C=N/c2ccc(N3CCOCC3)cc2)c1 here?
The EC50 was > 104 µM (inactive).

What about the CC50 [4] of the same compound?
The CC50 was > 40 µM (active).

With CCOc1ccccc1Nc1nc(Cl)nc(Nc2ccccc2OCC)n1 as the compound, how does the IC50 [1] read?
Its IC50 is > 99 µM (inactive).

And the IC50 [2]?
The IC50 was > 99 µM (inactive).

Which results are given for COCCNc1nc(NCc2ccc(NC(C)=O)cc2)c2sccc2n1?
IC50 [5]: 15.4 µM (active); IC50 [6]: 17.5 µM (active)

Which EC50 [7] does the source give for O=C(CN(Cc1ccccc1Cl)S(=O)(=O)c1ccc(Cl)cc1)N/N=C/c1ccc(C(=O)O)cc1 here?
The EC50 was > 195 µM (not active).

And the AC50 [8]?
The AC50 was 84 µM (active).

And the AC50 [9]?
Its AC50 is 78.3 µM (active).

For C[C@]12CC[C@H](O)C[C@@H]1CC(=O)[C@@H]1[C@@H]2CC[C@]2(C)C(=O)CC[C@@H]12, which IC50 [10] is on record?
Its IC50 is 33.8 µM (inactive).

For C=CC1=C(C(=O)O)N2C(=O)[C@@H](NC(=O)/C(=N\O)c3csc(N)n3)[C@H]2SC1 (stereo in doubt), which IC50 [11] is on record?
The IC50 was 6.25 µM (active).

What about the EC50 [12] of the same compound?
Its EC50 is 33.3 µM (active).

What about the IC50 [5] of the same compound?
Its IC50 is 21.5 µM (inactive).

What about the IC50 [13] of the same compound?
The IC50 was > 66.6 µM (inactive).

What about the EC50 [14] of the same compound?
The EC50 was 49.8 µM (active).

What about the IC50 [6] of the same compound?
The IC50 was 19.6 µM (active).

What about the IC50 [15] of the same compound?
The IC50 was 4.48 µM (active).
